The values that follow come from ChEMBL document CHEMBL3886716, “Methods of modulating the activity of the MC5 receptor and treatment of conditions related to this receptor” (2016).

The target of the experiment is Melanocortin receptor 5 (Homo sapiens, UniProt P33032). In words: Radioligand Binding Assay: Assessments of compound binding to human MC5R (hMC5R)) by displacement of an 125I-labeled NDP-MSH receptor ligand peptide were performed essentially as described in the data sheets produced by Perkin Elmer to accompany their frozen hMC5R membranes (Perkin Elmer catalog number RBXMC5M400UA). [125I] NDP-MSH: Radiolabeled in House and Purified by HPLC: Na125I (0.5 mCi, 17.4 Ci/mg) was added to 50 μL sodium phosphate (50 mM, pH 7.4) in an eppendorf tube precoated with IODOGEN. After incubation for 10 mins the phosphate buffer containing the iodine was added to NDP-MSH (10 μl at 1 mg/mL) in a separate eppendorf tube. This was incubated for a further 10 mins. The iodinated NDP-MSH was purified by HPLC on a Zorbax SB 300 column using solvent A: 0.05% TFA and solvent B: 90% acetonitrile 0.045% TFA with a linear gradient, 0-67% B over 60 mins. The 125I NDP-MSH eluted at 52 mins after the unlabeled starting material (48 min) and was counted and stored in the freezer. […] Incubation buffer: 25 mM HEPES-KOH (pH 7.0), 1.5 mM CaCl2, 1 mM MgSO4, 0.1 M NaCl, 1 mM 1,10-phenanthroline, and 1 Complete™ protease inhibitor tablet/100 mL (Roche, catalog number 1873580). Perkin Elmer frozen hMC5 membranes: catalog number RBXMC5M400UA, 0.4 mL/vial; 400 microassays/vial, 0.78 mg/mL protein concentration. Vials of frozen membranes were thawed rapidly immediately before use, diluted with binding buffer and vortexed. Resuspended membranes were kept on ice until they were added to the wells of the plate. Assays were performed in 96 well polypropylene plates. […] This was incubated for 1 hr at 37° C.
Melanocortin receptor 5, sequence (P33032 whole entry): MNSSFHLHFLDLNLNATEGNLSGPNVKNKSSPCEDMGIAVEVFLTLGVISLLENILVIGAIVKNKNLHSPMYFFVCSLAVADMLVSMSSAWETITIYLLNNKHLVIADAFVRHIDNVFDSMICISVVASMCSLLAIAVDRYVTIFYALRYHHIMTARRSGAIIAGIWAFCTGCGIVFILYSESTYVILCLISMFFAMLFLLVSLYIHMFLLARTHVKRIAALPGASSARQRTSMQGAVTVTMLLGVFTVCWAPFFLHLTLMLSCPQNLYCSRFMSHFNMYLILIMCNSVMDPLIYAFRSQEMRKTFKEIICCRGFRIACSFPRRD
In the case of `N=C(N)NCCC[C@@H]1N[C@H](CNC(=O)/C=C/c2ccc(Cl)cc2)CCN(CC(c2ccccc2)c2ccccc2)C1=O`, the IC50 (in general, the concentration that inhibits the measured activity by half) is below 0.1 µM. Take `N=C(N)NCCC[C@@H]1N[C@H](CNC(=O)c2ccc(Oc3ccccc3)cc2)CCN(CC(c2ccccc2)c2ccccc2)C1=O`: the IC50 was below 1 µM. On to `N=C(N)NCCC[C@@H]1N[C@H](CNC(=O)c2ccc3ccccc3c2)CCN(CCc2ccc(Cl)cc2Cl)C1=O`, for which the IC50 was below 1 µM.

`N=C(N)NCCC[C@@H]1N[C@H](CNC(=O)c2cccc(Oc3ccccc3)c2)CCN(CC(c2ccccc2)c2ccccc2)C1=O`: the half-maximal inhibitory concentration (IC50) is below 0.1 µM. On to `N=C(N)NCCC[C@@H]1N[C@H](CNC(=O)c2ccc3cc(O)ccc3c2)CCN(CC(c2ccccc2)c2ccccc2)C1=O`, for which the IC50 is below 0.1 µM. As for `N=C(N)NCCC[C@@H]1N[C@H](CNC(=O)c2ccc3ccccc3c2)CCN(CCc2ccc(Cl)c(Cl)c2)C1=O`, the IC50 was below 10 µM. The same measure for `O=C(/C=C/c1ccc(Cl)cc1)NC[C@@H]1CCN(CC(c2ccccc2)c2ccccc2)C(=O)[C@H](CC2CCCCC2)N1`: below 1 µM.
